Several values for one entry are separate records, joined by “and”; a condition that tells them apart may be missing. Equal values may be shown once.
Key:
[1] = tested on: M. haemolytica M7/2, serotype A:1, ID 6357; assay: Mannheimia haemolytica cattle lung infection model, efficacy (Example 8); assay type: in vivo, Holstein black pied cattle calves; parameters: key to General behavior, score: 0 = normal; 1 = slightly depressive; 2 = moderately depressive; 3 = highly depressive; 4 = recumbency; key to Re-isolation of bacteria, Left Bronchial swab / Re-isolation of bacteria, Right Bronchial swab: − no bacterial growth; + low; ++ medium; +++ high amount of bacterial growth; details: for Food consumption, cumulated for all animals in the group: 3 calves; for Lung score (including grade and percent Lung consolidation): grade of consolidation 0 to 3
Protocol: 15 male Holstein black pied cattle calves of ca. 4 months age were randomly assigned to the study groups ensuring an equal distribution of body weight. The animal weight was approximately 98-133.5 kg on D-1.
Calves were infected on Day 0 via intratracheal instillation of approximately 300 mL of a M. haemolytica PBS suspension containing approximately 3×10^9 CFU M. haemolytica in late log phase.
Three animals each were treated one hour after infection by subcutaneous (SC) administration of Compound 329 in an aqueous 30% (w/v) Captisol® solution for injection at a dose of 10 mg/kg BW.
The respective dose volume was injected on the sides of the thoracic wall. Injection volumes exceeding 10 mL were divided into one portion of 10 mL administered to the left side and the remaining rest administered at different injection sites on the other side. Animals in one control group were treated with a commercially available Enrofloxacin solution (Baytril ® 10%, Bayer Animal Health) at the recommended dose of 10 mg/kg BW. The second control group was treated with the galenic diluent (30% (w/v) Captisol®, dissolved in water) as placebo.
Food consumption was measured. Single individual blood samples were collected from the 12 animals at the following time points: D-1 (predose), 30 minutes, 2, 4, 6, 24 h and at D2 (ca. 45 h) after administration. After the day 2 blood sampling, the infected cattle were slaughtered. The lungs were weighted. Lung states and lung scores were observed morphologically.
At necropsy from animals treated with test items or the positive control, samples of epithelial lining fluid (ELF), lung tissue, and additionally tissue of liver and kidney were collected. From each lung two bacteriological swaps were taken from the left and right bronchus.
From each lung two tissue samples were collected by clipping from at least two locations, one from morphologically unchanged tissue, one from the edge of pathomorphologically changed areas.

M. haemolytica M7/2 = assay: Mannheimia haemolytica cattle lung infection model, efficacy (Example 9); assay type: in vivo, cattle calves; details: 3 calves, SC 10 mg/kg BW
Protocol: Unless otherwise described the study was conducted as described in Example 8.
(§1) Calves were infected via intratracheal instillation of appr. 300 mL of M. haemolytica PBS suspension containing approximately 4×10^9 CFU M. haemolytica in late log phase on Day 0.
The following clinical findings were recorded: The general behavior scores of the animals before (DO am) and after infection with M. haemolytica in the different treated and control groups are indicated in FIG. 7-1: 0 =normal; 1=slightly depressive, 2=moderately depressive, 3=highly depressive, […] recumbency.
The following pathomorphological findings after section on Day 2 were recorded: After measuring the body weight and the lung weight the Lung body mass ratio was calculated as shown in FIG. 7-2. A healthy animal has a lung body mass ration around 1.7 or lower. The area percentage of lung consolidations compared to the total lung tissue and the lung score determined that is a combined score of such percentage of lung consoldiations and the grade. For the “grade” the degree of lung consolidation score was graded from 0 to 3 for each of eight lung lobes: 0 no visible changes, 1 low graded colour changes or induration, 2 medium graded induration, 3 high graded induration, hepatisation, necrosis.
The geometrical means (CFU/g tissue) of bacteriological re-isolations of Mannheimia haemolytica from lung tissue are illustrated in FIG. 7-4.

M. haemolytica = assay: Mannheimia haemolytica cattle lung infection model, efficacy (Example 10); assay type: in vivo, cattle calves; details: 3 calves, 10 mg/kg
Protocol: Unless otherwise described the study was conducted as described in Clinical Example 8
as §1
One hour later three animals each were treated with 10 mg/kg of Compound 231(referred to as C. 231) (80 mg/mL in 10% Poloxamer 188), or 10 mg/kg or 5 mg/kg Compound 329 (referred to as C. 329) (150 mg/mL in 35% Cavitron).
The following clinical findings were recorded: The general behavior scores of the animals before (DO am) and after infection with M. haemolytica in the different treated and control groups are indicated in FIG. 8-1: 0=normal; 1=slightly depressive, 2=moderately depressive, 3=highly depressive, 4=recumbency.
The following pathomorphological findings after section on Day 2 were recorded: After measuring the body weight and the lung weight the Lung body mass ratio was calculated as shown in FIG. 8-2. A healthy animal has a lung body mass ration around 1.7 or lower. The area percentage of lung consolidations compared to the total lung tissue and the lung score determined that is a combined score of such percentage of lung consoldiations and the grade. For the “grade” the degree of lung consolidation score was graded from 0 to 3 for each of eight lung lobes: 0 no visible changes, 1 low graded colour changes or induration, 2 medium graded induration, 3 high graded induration, hepatisation, necrosis.
The geometrical means (CFU/g tissue) of bacteriological re-isolations of Mannheimia haemolytica from lung tissue are illustrated in FIG. 8-4.

[2] = section on day 2, infected calves, SC 10 mg/kg, individual animals and mean, 10 mg/kg
[3] = section on day 2, infected calves, SC 10 mg/kg, individual animals and mean, 10 mg/kg, mean
[4] = section on day 2, infected calves, SC single 10 mg/kg, individual animals
[5] = D 0 am, after infection and treatment

## CCN1CCN(c2cc3c(cc2F)c(=O)c(C(=O)O)cn3C2CC2)CC1 [Enrofloxacin, reference compound]
[1]; D 0 am (before infection), calves, SC 10 mg/kg, individual animals and mean, 10 mg/kg
  General behavior, score: 0
[1]; D 0 am (before infection), calves, SC 10 mg/kg, individual animals and mean, 10 mg/kg, mean
  General behavior, score: 0.0 score
[1]; D 0 am, after infection and treatment, SC 10 mg/kg
  Food consumption, cumulated for all animals in the group: 660 g
[1]; D 0 pm, SC 10 mg/kg
  Food consumption, cumulated for all animals in the group: 4800 g
[1]; D 0 pm, calves infected with M. haemolytica, SC 10 mg/kg 1 h after infection, individual animals and mean, 10 mg/kg
  General behavior, score: 0
[1]; D 0 pm, calves infected with M. haemolytica, SC 10 mg/kg 1 h after infection, individual animals and mean, 10 mg/kg, mean
  General behavior, score: 0.0 score
[1]; D 1 am, calves infected with M. haemolytica, SC 10 mg/kg 1 h after infection, individual animals and mean, 10 mg/kg
  General behavior, score: 0
[1]; D 1 am, calves infected with M. haemolytica, SC 10 mg/kg 1 h after infection, individual animals and mean, 10 mg/kg, mean
  General behavior, score: 0.0 score
[1]; D 1 pm, calves infected with M. haemolytica, SC 10 mg/kg 1 h after infection, individual animals and mean, 10 mg/kg
  General behavior, score: 0
[1]; D 1 pm, calves infected with M. haemolytica, SC 10 mg/kg 1 h after infection, individual animals and mean, 10 mg/kg, mean
  General behavior, score: 0.0 score
[1]; D 2 am, calves infected with M. haemolytica, SC 10 mg/kg 1 h after infection, individual animals and mean, 10 mg/kg
  General behavior, score: 0
[1]; D 2 am, calves infected with M. haemolytica, SC 10 mg/kg 1 h after infection, individual animals and mean, 10 mg/kg, mean
  General behavior, score: 0.0 score
[1]; D +1 am, SC 10 mg/kg
  Food consumption, cumulated for all animals in the group: 4800 g
[1]; D +1 pm, SC 10 mg/kg
  Food consumption, cumulated for all animals in the group: 4800 g
[1]; D −1 (before infection), SC 10 mg/kg
  Food consumption, cumulated for all animals in the group: 4800 g
[1]; infected calves, SC 10 mg/kg, in words
  mean bacterial re-isolation: Very low
[1]; [2]
  Lung score (including grade and percent Lung consolidation): 21.2 and 16.9 and 20.4
  Lung consolidations: 13.0% and 10.8% and 15.3%
  Lung weight: 1334 g and 1765 g and 1429 g
  Lung/body weight ratio: ~1.3% and 1.31% and 1.34% and 1.21% and 1.29%
[1]; [3]
  Lung score (including grade and percent Lung consolidation): 19.5
  Lung consolidations: 13.0%
  Lung weight: 1509 g
[1]; [4]
  Re-isolation of bacteria, Left Bronchial swab: −
  Re-isolation of bacteria, Right Bronchial swab: −
M. haemolytica M7/2; [5]
  Food consumption, cumulated for all animals in the group: 4027 g
M. haemolytica M7/2; D 0 pm
  Food consumption, cumulated for all animals in the group: 4800 g
M. haemolytica M7/2; D +1 am
  Food consumption, cumulated for all animals in the group: 4737 g
M. haemolytica M7/2; D +1 pm
  Food consumption, cumulated for all animals in the group: 4800 g
M. haemolytica M7/2; D −1 (before infection)
  Food consumption, cumulated for all animals in the group: 4800 g
M. haemolytica; [5]
  Food consumption, cumulated for all animals in the group: 1667 g
M. haemolytica; D 0 pm
  Food consumption, cumulated for all animals in the group: 4800 g
M. haemolytica; D +1 am
  Food consumption, cumulated for all animals in the group: 4800 g
M. haemolytica; D +1 pm
  Food consumption, cumulated for all animals in the group: 4800 g
M. haemolytica; D −1 (before infection)
  Food consumption, cumulated for all animals in the group: 4800 g

— patent US20230000813A1, “COMPOUND FOR THE TREATMENT OF BOVINE OR SWINE RESPIRATORY DISEASE” (Intervet Inc., priority 2016, published 2023)
